In patent US7582725B2, “Agents, which inhibit apoptosis in cells that are involved in wound healing” (Dermatools Biotech GmbH, priority 2001, dated 2009):

What was measured:
Assay type in all cases: cell-based
[1] = test system: MRC-5 fibroblasts; test: Incubation of fibroblasts with anti-apoptotic peptides: TSP-1 induced apoptosis, DAPI staining; conditions: 24 h; for Inhibition index [%]: 100−(measured apoptosis index*100/control apoptosis index), 1 μg/ml TSP-1 + peptide 1 mM; for Apoptosis index [%]: static, fresh medium with 1 μg/ml TSP-1 + peptide 1 mM, 3 independent experiments, average ± SD
Description: The cells are cultivated under static culture conditions as in example 1/variant 1B1. The cells are seeded in the appropriate culture vessels (e.g. 24-well plate/0.5 ml per well) and employed for the test 3 days after complete confluence is reached. The cells are provided with new medium: • (a) fresh culture medium [basic rate of apoptosis] • (b) fresh culture medium with 1 μg/ml TSP-1 [apoptosis-inducing substance; control] • (c) culture medium (b)+peptide of SEQ ID NO 1; 1 mM • (d) culture medium (b)+peptide of SEQ ID NO 2; 1 mM • (e) culture medium (b)+peptide of SEQ ID NO 3; 1 mM • (f) culture medium (b)+peptide of SEQ ID NO 4; 1 mM • (g) culture medium (b)+peptide of SEQ ID NO 7; 1 mM • (h) culture medium (b)+peptide of SEQ ID NO 8; 1 mM • (i) culture medium (b)+peptide of SEQ ID NO 9; 1 mM • (j) culture medium (b)+peptide of SEQ ID NO 10; 1 mM • (k) culture medium (b)+peptide of SEQ ID NO 11; 1 mM • (l) culture medium (b)+peptide of SEQ ID NO 5; 1 mM • (m) culture medium (b)+peptide of SEQ ID NO 6; 1 mM
After incubation under culture conditions (example 1) for 24 h, the cells are fixed, stained with DAPI and examined morphologically under the fluorescence microscope. The apoptotic cells and the total number of cells are determined, and the apoptosis index is calculated (percent of apoptotic cells). The data from 3 independent experiments are indicated in the following table, indicating the averages and the standard deviation.
The inhibition index of the peptides employed is calculated as follows:
Inhibition index [%]=100−(measured apoptosis index* 100/control apoptosis index)

[2] = test system: MRC-5 fibroblasts; test: Tension-dependent apoptosis of MRC-5 fibroblasts in collagen matrices (relaxed), DAPI staining; conditions: relaxed collagen matrix
Description: 2×10^5 cells are seeded in each collagen matrix. For this purpose, 100 μl of the cell suspension (the appropriate cell titer is adjusted after the trypsinization in serum-free DMEM) are introduced into 1.5 ml reaction vessels pre-equilibrated at 37° C., 100 μl of the neutralized collagen solution are added, and the resulting solution is incubated at 37° C. for 4 min. The collagen concentration is 1.5 mg/ml. The cell/collagen suspension is seeded in 24-well cell culture plates or in 3.5 cm culture dishes. The matrix is polymerized at 37° C. for 60 min.
The matrices are covered with a layer of culture medium (DMEM+10% FCS+50 μg/ml ascorbic acid) and cultivated in an incubator at 37° C. and 8.5% by volume CO2 in a water vapor-saturated air atmosphere for 24 h.
The adherent matrix is cautiously detached with a spatula from the substrate and “floats” in the culture medium without contact with the substrate. The tension is abolished. The cultivation takes place for the period stated in each case.
The cells are cultivated as stated in example 11. Day “0” corresponds to the time after 24 h cultivation with ascorbic acid-containing medium before further cultivation under tensioned or relaxed conditions. After the stated times, the cell/collagen matrix is fixed in 4% (w/v) paraformaldehyde in PBS, followed by DAPI staining. […]

[3] = test system: MRC-5 fibroblasts; test: Rate of apoptosis of statically cultivated MRC-5 fibroblasts, DAPI staining; conditions: for Apoptosis [%]: static, 24 h, substance in fresh medium, or conditioned medium alone
Description: The MRC-5 cell line used is seeded in ungelatinized cell culture vessels. The subsequent cultivation takes place in an incubator at 37° C. and 5% by vol. CO2 in a water vapor-saturated atmosphere. The culture medium is changed every second to third day and, after confluence is reached, the cells are passaged with a division rate from 1:5 to 1:10.
(§1) The culture supernatant from a Petri dish is aspirated off, and the cell lawn is fixed with 1 ml of formaldehyde solution on ice for 15 minutes, washed twice with 2 ml of PBS, treated with 0.5 ml of DAPI solution for 15 minutes, washed with PBS and evaluated under the fluorescence microscope. The UV filter set and a 20× or 40× objective are used. 500-1 000 cells are selected at random, and the cells with apoptotic nuclei are counted.
The apoptosis index is calculated by the following formula: […]
The used culture medium from a confluent MRC-5 fibroblast culture is removed, and the cell lawn is washed once with culture medium and cultivated under the stated conditions for 24 h.
The used culture medium from a confluent culture is removed, and the cell lawn is washed once with culture medium and cultivated under the stated conditions for 24 h.

[4] = test system: MRC-5 fibroblasts; test: Rate of apoptosis of dynamically cultivated MRC-5 fibroblasts (cone and plate shear apparatus), DAPI staining
Description: The fibroblasts are initially cultivated under static conditions until confluence is reached. This is followed by cultivation under dynamic conditions in the cone and plate shear apparatus (after Bussolori et al. (1982) Rev. Sci. Instrum. 53, 1851-1854) for 24 h.
This is done by precultivation of the cells initially in gelatinized culture dishes (◯=35 mm) with 0.15 ml/cm^2 culture medium and then further cultivation under turbulent or laminar flow conditions in the cone and plate shear apparatus for a maximum of 24 h. The flow conditions result from the angle of the cone. The flow over the cells is turbulent at a cone angle of 5° and is laminar at a cone angle of 0.5°.
Before use, the cone and plate shear apparatus is cleaned with a soft cloth and 70% (v/v) ethanol, the cone is sterilized and the apparatus is equilibrated at 37° C. in a heating cabinet. […]
as §1, with “The UV filter set and a 20× or 40× objective are used.” left out, “counted. […]” for “counted.”

Q: Which results are given for R-D-Y-V-V-M (RDYVVM) [SEQ ID NO 11]?
A: Inhibition index [%] [1]: 38.9 ± 16.7%; Apoptosis index [%] [1]: 2.66 ± 0.71%

Q: R-G-Y-V-V-M (RGYVVM) [SEQ ID NO 7] was tested. Which “Inhibition index [%]” value [1] did it give?
A: The value was 53.7 ± 13.9%.

Q: What about the “Apoptosis index [%]” value [1] of the same compound?
A: The value was 2.00 ± 0.59%.

Q: For `CO[C@@H]1C(=O)O[C@H](C)[C@H](C)/C=C(\C)C[C@H](C)C(=O)N[C@@H](C)C(=O)N(C)[C@H](Cc2c[nH]c3ccccc23)C(=O)N[C@H]1c1ccc(O)cc1` [chondramide A, reference compound], which “Apoptosis [%]” value ([2]; Example 14, 1 μM for 1 h before detachment, 8 h further cultivation) is on record?
A: The value was 1.0 ± 0.2%.

Q: How did the “Inhibition index [%]” value [1] turn out when R-W-Y-V-V-M (RWYVVM) [SEQ ID NO 2] was run?
A: Its value is 53.7 ± 6.8%.

Q: And the “Apoptosis index [%]” value [1]?
A: Its value is 2.00 ± 0.29%.

Q: What does the source list for R-A-Y-V-V-M (RAYVVM) [SEQ ID NO 1]?
A: Inhibition index [%] [1]: 71.4 ± 6.8%; Apoptosis index [%] [1]: 1.21 ± 0.29%

Q: R-T-Y-V-V-M (RTYVVM) [SEQ ID NO 9] was tested. Which “Inhibition index [%]” value [1] did it give?
A: The value was 25.4 ± 11.8%.

Q: And the “Apoptosis index [%]” value [1]?
A: The value was 3.19 ± 0.50%.

Q: Which “Inhibition index [%]” value [1] does the source give for R-E-Y-V-V-M (REYVVM) [SEQ ID NO 4] here?
A: Its value is 80.4 ± 7.0%.

Q: And the “Apoptosis index [%]” value [1]?
A: Its value is 0.87 ± 0.32%.

Q: How did the “Apoptosis [%]” value ([3]; Example 6) turn out when thrombospondin 1 [TSP-1] was run?
A: The value was 5.6 ± 0.2%.

Q: And the “Apoptosis [%]” value ([3]; Example 7)?
A: The value was 5.6 ± 0.2%.

Q: And the “Effect on apoptosis of statically cultivated fibroblasts (in words)” value ([3]; static culture)?
A: The value was “increase in spontaneous apoptosis”.

Q: And the “Apoptosis [%]” value ([2]; Example 13, DMEM/FCS + substance, 24 h, antibodies 50 μg/ml, Tsp1 20 μg/ml)?
A: The value was 10.5 ± 0.5%.

Q: What about the Apoptosis [%] ([4]; dynamic cultivation, 24 h, conditioned medium alone or fresh medium + TSP-1) of the same compound?
A: The Apoptosis [%] was 0.4 ± 0.1%.

Q: What about the “Effect on apoptosis of dynamic fibroblast cell culture (in words)” value ([4]; dynamic culture) of the same compound?
A: The value was “no effect on apoptosis”.

Q: For R-M-Y-V-V-M (RMYVVM) [SEQ ID NO 8], which “Inhibition index [%]” value [1] is on record?
A: The value was 42.8 ± 6.9%.

Q: And the “Apoptosis index [%]” value [1]?
A: The value was 2.46 ± 0.29%.

Q: Which “Inhibition index [%]” value [1] does the source give for “K-R-A-Y-V-V-M-W-K-K (KRAYVVMWKK) [SEQ ID NO 5]” here?
A: Its value is 90.1 ± 4.9%.

Q: And the “Apoptosis index [%]” value [1]?
A: Its value is 0.42 ± 0.21%.

Q: With R-N-Y-V-V-M (RNYVVM) [SEQ ID NO 10] as the compound, how does the “Inhibition index [%]” value [1] read?
A: Its value is 13.5 ± 16.2%.

Q: And the “Apoptosis index [%]” value [1]?
A: Its value is 3.70 ± 1.11%.

Q: Which results are given for “K-R-E-Y-V-V-M-W-K-K (KREYVVMWKK) [SEQ ID NO 6]”?
A: Inhibition index [%] [1]: 94.4 ± 4.2%; Apoptosis index [%] [1]: 0.24 ± 0.18%

Q: With R-Y-Y-V-V-M (RYYVVM) [SEQ ID NO 3] as the compound, how does the “Inhibition index [%]” value [1] read?
A: The value was 65.3 ± 0.9%.

Q: And the “Apoptosis index [%]” value [1]?
A: Its value is 1.45 ± 0.04%.
